Counter-ions that a name gives are not always drawn.
biological target: human PAI-1 (Homo sapiens, UniProt P05121); assay: Measurement of PAI-1 inhibitory activity of compound group 1 (t-PA, Spectrozyme t-PA chromogenic substrate); details: read-out: PAI-1 activity %
Sequence (P05121 24-402): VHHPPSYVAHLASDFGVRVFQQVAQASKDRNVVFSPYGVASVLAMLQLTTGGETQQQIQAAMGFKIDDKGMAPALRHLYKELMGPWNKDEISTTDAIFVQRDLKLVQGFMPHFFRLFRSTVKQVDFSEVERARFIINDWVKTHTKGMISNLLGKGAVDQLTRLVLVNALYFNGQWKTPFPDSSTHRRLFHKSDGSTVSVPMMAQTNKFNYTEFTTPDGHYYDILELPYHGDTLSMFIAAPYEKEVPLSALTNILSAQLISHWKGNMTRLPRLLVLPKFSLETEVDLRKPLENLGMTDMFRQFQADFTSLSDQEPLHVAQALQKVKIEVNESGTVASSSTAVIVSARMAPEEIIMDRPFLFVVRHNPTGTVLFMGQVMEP
Procedure: Subsequently, human-derived tissue plasminogen activator (t-PA) (manufactured by American Diagnostica, Inc. (USA); the same applies hereinafter) adjusted to 0.05 pmol/μL was added thereto, and the mixture was further incubated at 37° C. for 60 minutes. Then, 0.25 mM of Spectrozyme t-PA synthetic substrate (manufactured by American Diagnostica, Inc. (USA); the same applies hereinafter), which is a chromogenic substrate, was added. The final mixture contained 50 mM Tris-HCl (pH 8), 150 mM NaCl, 1% DMSO, 0.1% PEG-6000, 0.2 mM CHAPS, 5 nM PAI-1, 2 nM t-PA, 0.2 mM Spectrozyme t-PA synthetic substrate, and each compound (10 μM or 2.5 μM).
Free radical p-nitroaniline removed from the chromogenic substrate (Spectrozyme t-PA) by t-PA action was measured using a spectrophotometer at an absorbance of 405 nm at 20-minute intervals, for 120 minutes.

| Compound | activity at 2.5 µM | activity at 10 µM |
| --- | --- | --- |
| O=C(Nc1ccc(Cl)cc1C(=O)O)C(=O)c1c[nH]c2ccc(OCc3ccccc3)cc12 [Example 57, 2-({[5-(benzyloxy)-1H-indol-3-yl](oxo)acetyl}amino)-5-chlorobenzoic acid] | 38.6% | 0.2% |
| O=C(Nc1ccc(Cl)cc1C(=O)O)c1cccc(-c2cccc3ccccc23)c1 [Example 58, 5-chloro-2-({[3-(naphthalen-1-yl)phenyl]carbonyl}amino)benzoic acid] | 0% | 0% |
| O=C(CCOc1ccc(C23CC4CC(CC(C4)C2)C3)cc1)Nc1ccc(Cl)cc1C(=O)O [Example 59, 2-({3-[4-(adamantan-1-yl)phenoxy]propanoyl}amino)-5-chlorobenzoic acid] | 56.3% | 1.4% |
| O=C(O)c1cc(Cl)ccc1NC(=O)c1cc2cc(-c3ccccc3)ccc2n1CCCO [Example 60, 5-chloro-2-({[1-(3-hydroxypropyl)-5-phenyl-1H-indol-2-yl]carbonyl}amino)benzoic acid] | 25% | 0.9% |
| COc1ccccc1-c1cccc(OCC(=O)Nc2ccc(Cl)cc2C(=O)O)c1 [Example 61, 5-chloro-2-({[(2′-methoxybiphenyl-3-yl)oxy]acetyl}amino)benzoic acid] | 92.4% | 38.9% |
| O=C(Nc1ccc(Cl)cc1C(=O)O)c1cccc(C23CC4CC(CC(C4)C2)C3)c1 [Example 62, 2-({[3-(adamantan-1-yl)phenyl]carbonyl}amino)-5-chlorobenzoic acid] | 29.1% | 0.6% |
| O=C(Cc1ccc(-c2ccccc2)cc1)Nc1ccc(Cl)cc1C(=O)O [Example 70, 2-[(biphenyl-4-ylacetyl)amino]-5-chlorobenzoic acid] | 94.6% | 4.4% |
| O=C(Nc1ccc(-c2ccccc2)cc1)Nc1ccc(Cl)cc1C(=O)O [Example 71, 2-[(biphenyl-4-ylcarbamoyl)amino]-5-chlorobenzoic acid] | 39.6% | 2.1% |
| Cc1ccc(-c2ccc(F)cc2)cc1NCC(=O)Nc1ccc(Cl)cc1C(=O)O [Example 72, 5-chloro-2-{[N-(4′-fluoro-4-methylbiphenyl-3-yl)glycyl]amino}benzoic acid] | 31.1% | 3.6% |
| O=C(CNC(c1ccccc1)c1ccccc1)Nc1ccc(Cl)cc1C(=O)O [Example 73, 5-chloro-2-{[N-(diphenylmethyl)glycyl]amino}benzoic acid] | 82.2% | 31.2% |
| O=C(O)c1cc(Cl)ccc1NC(=O)N1CCN(C(c2ccccc2)c2ccccc2)CC1 [Example 75, 5-chloro-2-({[4-(diphenylmethyl)piperazin-1-yl]carbonyl}amino)benzoic acid hydrochloride] | 86.4% | 4.7% |
| O=C(COC(c1ccccc1)c1ccccc1)Nc1ccc(Cl)cc1C(=O)O [Example 76, 5-chloro-2-{[(diphenylmethoxy)acetyl]amino}benzoic acid] | 92.9% | 30.6% |
| O=C(CN1CCN(C(c2ccccc2)c2ccccc2)CC1)Nc1ccc(Cl)cc1C(=O)O [Example 77, 5-chloro-2-({[4-(diphenylmethyl)piperazin-1-yl]acetyl}amino)benzoic acid] | 89.6% | 19.3% |
| O=C(/C=C/c1ccc(-c2ccccc2)cc1)Nc1ccc(Cl)cc1C(=O)O [Example 78, 2-{[(2E)-3-(biphenyl-4-yl)prop-2-enoyl]amino}-5-chlorobenzoic acid] | 25.3% | 0.3% |
| O=C(Nc1ccc(Cl)cc1C(=O)O)c1cccc(C2=CCCCC2)c1 [Example 79, 5-chloro-2-({[3-(cyclohex-1-en-1-yl)phenyl]carbonyl}amino)benzoic acid] | 44.5% | 1.6% |
| O=C(Nc1ccc(Cl)cc1C(=O)O)C1=CC2(CCCCC2)CCC1 [Example 84, 5-chloro-2-[(spiro[5.5]undec-1-en-2-ylcarbonyl)amino]benzoic acid] | 97% | 5.5% |
| O=C(O)c1cc(Cl)ccc1NC(=O)C1CCCC2(CCCCC2)C1 (stereo not drawn) [Example 85, 5-chloro-2-[(spiro[5.5]undec-2-ylcarbonyl)amino]benzoic acid] | 97.5% | 11% |
| Cc1ccc(C23CC4CC(CC(C(=O)Nc5ccc(Cl)cc5C(=O)O)(C4)C2)C3)cc1 [Example 86, 5-chloro-2-({[3-(4-methylphenyl)adamantan-1-yl]carbonyl}amino)benzoic acid] | 63.5% | 1.4% |
| O=C(/C=C/c1cccc(-c2ccccc2)c1)Nc1ccc(Cl)cc1C(=O)O [Example 89, 2-{[(2E)-3-(biphenyl-3-yl)prop-2-enoyl]amino}-5-chlorobenzoic acid] | 60.7% | 0.1% |
| O=C(/C=C/c1cccc(C2=CCCCC2)c1)Nc1ccc(Cl)cc1C(=O)O [Example 90, 5-chloro-2-({(2E)-3-[3-(cyclohex-1-en-1-yl)phenyl]prop-2-enoyl}amino)benzoic acid] | 65.3% | 0.1% |
| O=C(/C=C(/Cl)C1CCCCC1)Nc1ccc(Cl)cc1C(=O)O [Example 91, 5-chloro-2-{[(2E)-3-chloro-3-cyclohexylprop-2-enoyl]amino}benzoic acid] | 96.9% | 16.7% |
| O=C(C#Cc1ccc(C23CC4CC(CC(C4)C2)C3)cc1)Nc1ccc(Cl)cc1C(=O)O [Example 94, 2-({3-[4-(adamantan-1-yl)phenyl]prop-2-ynoyl}amino)-5-chlorobenzoic acid] | 3.5% | 7.4% |
| O=C(Nc1ccc(Cl)cc1C(=O)O)c1ccc(CC23CC4CC(CC(C4)C2)C3)cc1 [Example 96, 2-({[4-(adamantan-1-ylmethyl)phenyl]carbonyl}amino)-5-chlorobenzoic acid] | 23.9% | 5% |
| O=C(Nc1ccc(Cl)cc1C(=O)O)c1ccc(C(O)C23CC4CC(CC(C4)C2)C3)cc1 (stereo not drawn) [Example 97, 2-[({4-[adamantan-1-yl(hydroxy)methyl]phenyl}carbonyl)amino]-5-chlorobenzoic acid] | 89.9% | 0.7% |
| O=C(Nc1ccc(Cl)cc1C(=O)O)c1cccc(OCc2ccc3ccccc3n2)c1 [Example 99, sodium 5-chloro-2-({[3-(quinolin-2-ylmethoxy)phenyl]carbonyl}amino)benzoate] | 87.8% | 0.3% |
| O=C(Nc1ccc(Cl)cc1C(=O)O)c1ccc(OCc2ccc3ccccc3n2)cc1 [Example 100, sodium 5-chloro-2-({[4-(quinolin-2-ylmethoxy)phenyl]carbonyl}amino)benzoate] | 92.1% | 0.7% |
| O=C(/C=C/c1cccc(-c2cccc3cccnc23)c1)Nc1ccc(Cl)cc1C(=O)O [Example 101, sodium 5-chloro-2-({(2E)-3-[3-(quinolin-8-yl)phenyl]prop-2-enoyl}amino)benzoate] | 24.7% | 0.2% |

Results, then the molecule that gave them:

| activity at 2.5 µM | activity at 10 µM | Compound |
| --- | --- | --- |
| 44.7% | 0.6% | O=C(Nc1ccc(Cl)cc1C(=O)O)c1ccc(C2CCCCC2)cc1 [Example 69, 5-chloro-2-{[(4-cyclohexylphenyl)carbonyl]amino}benzoic acid] |
| 8.6% | 0.2% | Cc1sc(NC(=O)c2ccc(C3CCCCC3)cc2)c(C(=O)O)c1-c1ccccc1 [Example 74, 2-{[(4-cyclohexylphenyl)carbonyl]amino}-5-methyl-4-phenylthiophene-3-carboxylic acid] |
| 45.5% | 0% | O=C(Nc1ccc(Cl)cc1C(=O)O)c1cccc(C2CCCCC2)c1 [Example 80, 5-chloro-2-{[(3-cyclohexylphenyl)carbonyl]amino}benzoic acid] |
| 1% | 0% | O=C(Nc1ccc(C2=CCCCC2)cc1C(=O)O)c1ccc(C2CCCCC2)cc1 [Example 81, 5-(cyclohex-1-en-1-yl)-2-{[(4-cyclohexylphenyl)carbonyl]amino}benzoic acid] |
| 1.7% | 1.4% | O=C(Nc1ccc(C2CCCCC2)cc1C(=O)O)c1ccc(C2CCCCC2)cc1 [Example 82, 5-cyclohexyl-2-{[(4-cyclohexylphenyl)carbonyl]amino}benzoic acid] |
| 99.1% | 26.6% | O=C(Nc1ccc(Cl)cc1C(=O)O)c1ccc(N2CCCC2)cc1 [Example 83, 5-chloro-2-({[4-(pyrrolidin-1-yl)phenyl]carbonyl}amino)benzoic acid hydrochloride] |
| 20.5% | 1.2% | O=C(Nc1ccc(Cl)cc1C(=O)O)c1cccc(C#CC2CCCCC2)c1 [Example 87, 5-chloro-2-({[3-(cyclohexylethynyl)phenyl]carbonyl}amino)benzoic acid] |
| 35.5% | 0.8% | O=C(Nc1ccc(Cl)cc1C(=O)O)c1ccc(C#CC2CCCCC2)cc1 [Example 88, 5-chloro-2-({[4-(cyclohexylethynyl)phenyl]carbonyl}amino)benzoic acid] |
| 0% | 0.4% | O=C(Nc1ccc(C#CC2CCCCC2)cc1C(=O)O)c1ccc(C2CCCCC2)cc1 [Example 92, 5-(cyclohexylethynyl)-2-{[(4-cyclohexylphenyl)carbonyl]amino}benzoic acid] |
| 0% | 0% | O=C(Nc1ccc(CCC2CCCCC2)cc1C(=O)O)c1ccc(C2CCCCC2)cc1 [Example 93, 5-(2-cyclohexylethyl)-2-{[(4-cyclohexylphenyl)carbonyl]amino}benzoic acid] |
| 80.5% | 0.3% | C#Cc1ccc(NC(=O)c2ccc(C3CCCCC3)cc2)c(C(=O)O)c1 [Example 95, 2-{[(4-cyclohexylphenyl)carbonyl]amino}-5-ethynylbenzoic acid] |
| 41.5% | 0.1% | CC1(c2ccc(C(=O)Nc3ccc(Cl)cc3C(=O)O)cc2)CCCCC1 [Example 98, 5-chloro-2-({[4-(1-methylcyclohexyl)phenyl]carbonyl}amino)benzoic acid] |
